PubChem BioAssay AID2060903 (Molecular Pharmacology Branch, DTP, NCI, 2025)

System: 377384-186-R-J1-PDC complex spheroid viability
Experiment: Anticancer human tumor 377384-186-R-J1-PDC patient-derived pancreatic carcinoma cell line growth inhibition [RAS]
Details: for IC50: curve of first compound; for viability, T/C: stronger effect = lower value
Procedure, shortened: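 Multi-cell-type spheroids: tumor cells plus HUVEC endothelial cells and mesenchymal stem cells. RAS-pathway inhibitors were combined with targeted agents, each dosed in half-log steps down from clinical Cmax, or from 10 microM when Cmax was unknown.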

[1] = second compound 0.000949 µM, first compound 0.0316 µM
[2] = second compound 0.000949 µM, first compound 0.1 µM
[3] = second compound 0.000949 µM, first compound 0.316 µM
[4] = second compound 0.000949 µM, first compound 1 µM
[5] = second compound 0.003 µM, first compound 0.0316 µM
[6] = second compound 0.003 µM, first compound 0.1 µM
[7] = second compound 0.003 µM, first compound 0.316 µM
[8] = second compound 0.003 µM, first compound 1 µM
[9] = second compound 0.00949 µM, first compound 0.0316 µM
[10] = second compound 0.00949 µM, first compound 0.1 µM
[11] = second compound 0.00949 µM, first compound 0.316 µM
[12] = second compound 0.00949 µM, first compound 1 µM
[13] = second compound 0.03 µM, first compound 0.0316 µM
[14] = second compound 0.03 µM, first compound 0.1 µM
[15] = second compound 0.03 µM, first compound 0.316 µM
[16] = second compound 0.03 µM, first compound 1 µM
[17] = second compound 0.0949 µM, first compound 0.0316 µM
[18] = second compound 0.0949 µM, first compound 0.1 µM
[19] = second compound 0.0949 µM, first compound 0.316 µM
[20] = second compound 0.0949 µM, first compound 1 µM
[21] = second compound 0.3 µM, first compound 0.0316 µM
[22] = second compound 0.3 µM, first compound 0.1 µM
[23] = second compound 0.3 µM, first compound 0.316 µM
[24] = second compound 0.3 µM, first compound 1 µM
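Also: spheroids exposed to compounds for seven days before readout.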

SMILES: CC(Nc1ccc2c(c1)OCCn1cc(N3C(=O)OCC3C(F)F)nc1-2)C(N)=O (centres undefined) + CCn1c(-c2cccnc2C(C)OC)c2c3cc(ccc31)N1CCOC(CC(NC(=O)C(C(C)C)N(C)C(=O)C3(F)CCN(C(=O)C#CC(C)(C)N(C)C)CC3)C(=O)N3CCCC(N3)C(=O)OCC(C)(C)C2)C1
- IC50 (second compound 0.000949 µM): 0.65 µM
- IC50 (second compound 0.003 µM): 0.716 µM
- IC50 (second compound 0.00949 µM): 0.453 µM
- IC50 (second compound 0.03 µM): 0.51 µM
- IC50 (second compound 0.0949 µM): 0.28 µM
- IC50 (second compound 0.3 µM): 0.132 µM
- viability, T/C [1]: 86.7%
- viability, T/C [2]: 68.8%
- viability, T/C [3]: 56.5%
- viability, T/C [4]: 48%
- viability, T/C (second compound 0.000949 µM, first compound 3.16 µM): 34%
- viability, T/C (second compound 0.000949 µM, first compound 10 µM): 26.5%
- viability, T/C [5]: 94.1%
- viability, T/C [6]: 74.7%
- viability, T/C [7]: 57.7%
- viability, T/C [8]: 47.2%
- viability, T/C (second compound 0.003 µM, first compound 3.16 µM): 35.6%
- viability, T/C (second compound 0.003 µM, first compound 10 µM): 23.1%
- viability, T/C [9]: 92.5%
- viability, T/C [10]: 70%
- viability, T/C [11]: 53.3%
- viability, T/C [12]: 39.6%
- viability, T/C (second compound 0.00949 µM, first compound 3.16 µM): 39.2%
- viability, T/C (second compound 0.00949 µM, first compound 10 µM): 26.7%
- viability, T/C [13]: 87.2%
- viability, T/C [14]: 72.3%
- viability, T/C [15]: 55.3%
- viability, T/C [16]: 40.8%
- viability, T/C (second compound 0.03 µM, first compound 3.16 µM): 36.6%
- viability, T/C (second compound 0.03 µM, first compound 10 µM): 28.1%
- viability, T/C [17]: 72.9%
- viability, T/C [18]: 57.2%
- viability, T/C [19]: 49.2%
- viability, T/C [20]: 38.4%
- viability, T/C (second compound 0.0949 µM, first compound 3.16 µM): 37.5%
- viability, T/C (second compound 0.0949 µM, first compound 10 µM): 24.9%
- viability, T/C [21]: 70.3%
- viability, T/C [22]: 54.4%
- viability, T/C [23]: 35.8%
- viability, T/C [24]: 38%
- viability, T/C (second compound 0.3 µM, first compound 3.16 µM): 30.1%
- viability, T/C (second compound 0.3 µM, first compound 10 µM): 25%

SMILES: C=CC(=O)N1CCN(c2nc(OCC3CCCN3C)nc3c(F)c(-c4nc(N)cc(C)c4C(F)(F)F)c(Cl)cc23)C(C)C1 (centres undefined) + CCn1c(-c2cc(N3CCN(C)CC3)cnc2C(C)OC)c2c3cc(ccc31)-c1csc(n1)CC(NC(=O)C1CC1C)C(=O)N1CCCC(N1)C(=O)OCC(C)(C)C2
- IC50 (second compound 0.000949 µM): > 1 µM
- IC50 (second compound 0.003 µM): < 0.00316 µM
- IC50 (second compound 0.00949 µM): < 0.00316 µM
- IC50 (second compound 0.03 µM): < 0.00316 µM
- IC50 (second compound 0.0949 µM): < 0.00316 µM
- IC50 (second compound 0.3 µM): < 0.00316 µM
- viability, T/C (second compound 0.000949 µM, first compound 0.00316 µM): 57.6%
- viability, T/C (second compound 0.000949 µM, first compound 0.01 µM): 48.5%
- viability, T/C [1]: 58%
- viability, T/C [2]: 62.1%
- viability, T/C [3]: 61.6%
- viability, T/C [4]: 48%
- viability, T/C (second compound 0.003 µM, first compound 0.00316 µM): 19.5%
- viability, T/C (second compound 0.003 µM, first compound 0.01 µM): 19.7%
- viability, T/C [5]: 21.2%
- viability, T/C [6]: 19.3%
- viability, T/C [7]: 27.7%
- viability, T/C [8]: 22.1%
- viability, T/C (second compound 0.00949 µM, first compound 0.00316 µM): 5.16%
- viability, T/C (second compound 0.00949 µM, first compound 0.01 µM): 6.78%
- viability, T/C [9]: 4.26%
- viability, T/C [10]: 6.19%
- viability, T/C [11]: 8.67%
- viability, T/C [12]: 5.16%
- viability, T/C (second compound 0.03 µM, first compound 0.00316 µM): 2.65%
- viability, T/C (second compound 0.03 µM, first compound 0.01 µM): 2.3%
- viability, T/C [13]: 2.75%
- viability, T/C [14]: 3.22%
- viability, T/C [15]: 2.42%
- viability, T/C [16]: 1.95%
- viability, T/C (second compound 0.0949 µM, first compound 0.00316 µM): 2.35%
- viability, T/C (second compound 0.0949 µM, first compound 0.01 µM): 2.29%
- viability, T/C [17]: 2.53%
- viability, T/C [18]: 2.6%
- viability, T/C [19]: 2.41%
- viability, T/C [20]: 1.71%
- viability, T/C (second compound 0.3 µM, first compound 0.00316 µM): 2.58%
- viability, T/C (second compound 0.3 µM, first compound 0.01 µM): 2.04%
- viability, T/C [21]: 1.61%
- viability, T/C [22]: 1.52%
- viability, T/C [23]: 1.71%
- viability, T/C [24]: 1.54%
